Drawing on PubChem BioAssay (NCI), this text covers TGI and GI50 for 23 molecules.

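Five compound concentrations were applied to cells in 96-well plates for 48 hours; endpoints were derived by simple linear interpolation of the resulting dose-response curve. Abbreviation: GI50, concentration required for 50% inhibition of growth. The concentration for full growth arrest is given as TGI.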 Bounds are passed on as bounds.

Some test systems named below: EKVX NSCLC; HT29 colon; M14 melanoma; SF-539 CNS; SK-MEL-28 melanoma; SK-OV-3 ovarian; SN12C renal; T-47D breast; OVCAR-3 ovarian; BT-549 breast.
Holding throughout (experiment): NCI anticancer screen, dose series, 48 h

In the case of `Cc1cc(NC2=NCCO2)c2c(c1C)CCCC2`, the TGI in the assay on EKVX NSCLC is above 100 µM; in the assay with HT29 colon it was 49.7 µM; with M14 melanoma, 28.1 µM; in the assay on SF-539 CNS it was 22.6 µM; in the assay on SK-MEL-28 melanoma, 40.7 µM; with SK-OV-3 ovarian, above 100 µM. In addition, the TGI amounted to 66.3 µM with SN12C renal and 76.5 µM in the assay with T-47D breast.
In the case of `ClCc1c(-c2ccccc2)nn(-c2ccccc2)c1CCl`, the TGI in the assay with HT29 colon came to 31.9 µM; in the assay on M14 melanoma, 35.5 µM; with OVCAR-3 ovarian, 26.3 µM; with SF-539 CNS, 33.1 µM; with SK-MEL-28 melanoma, 32.3 µM; with SN12C renal it was 42.3 µM. In addition, the TGI with T-47D breast was 5.96 µM.
Regarding `CCCCNC(=S)/N=C/c1c(O)c2ccccc2oc1=O`, the TGI with EKVX NSCLC, in the assay with HT29 colon, with M14 melanoma, in the assay on OVCAR-3 ovarian, in the assay on SF-539 CNS and in the assay with SK-MEL-28 melanoma was above 100 µM throughout. Besides, the TGI with SK-OV-3 ovarian, in the assay with SN12C renal and in the assay on T-47D breast was above 100 µM in each case.
Regarding `COc1ccc(C2C(C(=O)O)=C(COC(C)=O)Oc3cc4c(cc32)OCO4)cc1` (stereo not drawn), the TGI with EKVX NSCLC, in the assay with HT29 colon, with M14 melanoma, in the assay with OVCAR-3 ovarian, in the assay on SK-MEL-28 melanoma and in the assay with SK-OV-3 ovarian was above 100 µM in each case. In the assay on SN12C renal, the TGI is above 100 µM.
With `Oc1c(I)cc(I)cc1CNCCCN(Cc1ccccn1)Cc1ccccn1`, the GI50 in the assay on EKVX NSCLC is 1000 nM; in the assay with HT29 colon, 1740 nM; with OVCAR-3 ovarian, 948 nM; in the assay with SF-539 CNS, 863 nM; in the assay with SK-MEL-28 melanoma, 1220 nM; with SK-OV-3 ovarian, 1010 nM. In addition, the GI50 was 990 nM in the assay on SN12C renal and 1490 nM with T-47D breast. Further, the TGI in the assay with EKVX NSCLC was determined as 2.38 µM; with HT29 colon, 10.2 µM; in the assay on OVCAR-3 ovarian, 1.85 µM; in the assay on SF-539 CNS it was 1.61 µM; in the assay with SK-MEL-28 melanoma, 3.16 µM; in the assay with SK-OV-3 ovarian, 2.18 µM. In addition, the TGI stood at 2.12 µM in the assay on SN12C renal and 5.83 µM in the assay on T-47D breast.
Take `Cc1ccccc1NC(=S)N=Nc1c(O)[nH]c2ccccc12`: the TGI in the assay on EKVX NSCLC is above 100 µM; with HT29 colon it was above 100 µM; with M14 melanoma, above 100 µM; with OVCAR-3 ovarian, above 100 µM; in the assay on SF-539 CNS, above 100 µM; with SK-MEL-28 melanoma it was 36.7 µM. In addition, the TGI in the assay on SK-OV-3 ovarian, with SN12C renal and in the assay on T-47D breast was above 100 µM in each case.
On to `C=CCC1NCCC2=C1C(S(=O)(=O)c1ccc(C)cc1)c1ccccc12` (stereo not drawn), for which the TGI with EKVX NSCLC stood at 33.5 µM; in the assay on HT29 colon it was 29.4 µM; in the assay with M14 melanoma, 26.8 µM; with OVCAR-3 ovarian, 26 µM; in the assay with SK-MEL-28 melanoma it was 26.6 µM; in the assay with SK-OV-3 ovarian it was 33.2 µM. Further, the figures for the TGI in the assay with SN12C renal and with T-47D breast were 28.5 µM and 26.1 µM, respectively.
Regarding `CC1NOC(NS(=O)(=O)c2ccc(N=Nc3c(O)c(C(=O)O)cc4ccccc34)cc2)C1C` (stereo not drawn), the TGI in the assay with BT-549 breast, in the assay with EKVX NSCLC, in the assay on HT29 colon, with M14 melanoma, in the assay with OVCAR-3 ovarian and in the assay with SF-539 CNS was above 100 µM throughout. Also, the TGI in the assay with SK-MEL-28 melanoma and in the assay on SK-OV-3 ovarian was above 100 µM each time.
On to `O=C(NCCO)c1c(O)c2ccccc2[nH]c1=O`, for which the TGI in the assay with BT-549 breast, in the assay on EKVX NSCLC, in the assay on HT29 colon, in the assay on OVCAR-3 ovarian, with SF-539 CNS and with SK-MEL-28 melanoma was above 100 µM each time. For the same molecule, the TGI in the assay on SN12C renal is above 100 µM.
As for `N=C(N)n1[nH]c2c(c1=O)CCC2`, the TGI with BT-549 breast, in the assay on HT29 colon, in the assay with M14 melanoma, with OVCAR-3 ovarian, in the assay on SF-539 CNS and in the assay with SK-MEL-28 melanoma was above 100 µM throughout. The TGI with SK-OV-3 ovarian and in the assay on SN12C renal was above 100 µM in each case.
Consider `CCN(CC)C(=O)c1c(N2CCOCC2)cc(N(CC)CC)oc1=O`, for which the TGI in the assay with EKVX NSCLC, in the assay with HT29 colon, with M14 melanoma, with OVCAR-3 ovarian, in the assay with SF-539 CNS and with SK-MEL-28 melanoma was above 100 µM each time. In addition, the TGI in the assay with SK-OV-3 ovarian and in the assay on SN12C renal was above 100 µM each time.
Consider `NCCCn1c2c(c3ccc([N+](=O)[O-])cc3c1=O)C(=O)c1cc3c(cc1-2)OCO3`, for which the GI50 was 164 nM in the assay with BT-549 breast; 148 nM in the assay with HT29 colon; 886 nM in the assay with OVCAR-3 ovarian; 320 nM with SK-OV-3 ovarian; below 10 nM in the assay on SN12C renal. The TGI in the assay with BT-549 breast is 1.76 µM; in the assay with HT29 colon it was above 100 µM; in the assay on OVCAR-3 ovarian, 3.21 µM; in the assay on SN12C renal, 0.385 µM.
For the molecule `C[C@]12CCC(=O)C=C1CC[C@@H]1[C@@H]2C(=O)C[C@@]2(C)[C@H]1CC[C@]2(O)C(=O)CO`, the TGI in the assay with EKVX NSCLC, with HT29 colon, in the assay on M14 melanoma, in the assay with OVCAR-3 ovarian, with SF-539 CNS and in the assay on SK-MEL-28 melanoma was above 100 µM in each case. Further, the TGI in the assay on SK-OV-3 ovarian and with SN12C renal was above 100 µM each time.
Consider `CC(=O)c1ccc(NC(=O)/C(=N\NC(N)=O)C(C#N)CC(C)(C)C=O)cc1` (stereo not drawn), for which the TGI in the assay with EKVX NSCLC, with HT29 colon, with M14 melanoma, in the assay with SF-539 CNS, in the assay with SK-MEL-28 melanoma and in the assay with SK-OV-3 ovarian was above 100 µM each time. Also, the TGI in the assay on SN12C renal is above 100 µM.
`C=C(C)CC1=C(C(=S)NCCO[Si](C)(C)C(C)(C)C)C(OCC)(OCC)C1=O`: the TGI in the assay with EKVX NSCLC is 34.4 µM; with HT29 colon, above 100 µM; in the assay on M14 melanoma, 35 µM; with SF-539 CNS, 37.8 µM; with SK-MEL-28 melanoma, 34.6 µM; in the assay with SK-OV-3 ovarian, 41.4 µM. Also, the TGI in the assay with SN12C renal amounted to 42.2 µM; in the assay on T-47D breast it was 35.4 µM.
Consider `Cc1ccc(NC(=O)c2cccc([N+](=O)[O-])c2O)c(C)c1`, for which the TGI in the assay with EKVX NSCLC was 98.6 µM; with HT29 colon, above 100 µM; in the assay with M14 melanoma, above 100 µM; in the assay with OVCAR-3 ovarian, above 100 µM; in the assay with SF-539 CNS it was 89.6 µM; in the assay on SK-MEL-28 melanoma it was above 100 µM. Further, the TGI with SK-OV-3 ovarian and in the assay with SN12C renal was above 100 µM throughout.
For the molecule `c1ccc([C@H]2CN3CCSC3=N2)cc1`, the TGI in the assay with EKVX NSCLC, in the assay on HT29 colon, in the assay with M14 melanoma, in the assay on OVCAR-3 ovarian, with SF-539 CNS and in the assay with SK-MEL-28 melanoma was above 100 µM each time. For the same molecule, the TGI with SK-OV-3 ovarian, in the assay on SN12C renal and with T-47D breast was above 100 µM throughout.
Take `[N-]=[N+]=C1CNC(=O)NC1=O`: the TGI in the assay with EKVX NSCLC, in the assay with HT29 colon, with M14 melanoma, in the assay with OVCAR-3 ovarian, in the assay with SF-539 CNS and in the assay on SK-MEL-28 melanoma was above 100 µM throughout. Moreover, the TGI in the assay with SK-OV-3 ovarian, with SN12C renal and in the assay on T-47D breast was above 100 µM each time.
Take `COC(=O)c1ccc(C)cc1C1CN=NC12Cc1cc(C)c(C)cc1C2=O` (stereo not drawn): the TGI in the assay with EKVX NSCLC was 99.7 µM; in the assay with HT29 colon it was above 100 µM; with M14 melanoma, above 100 µM; with OVCAR-3 ovarian it was above 100 µM; in the assay on SF-539 CNS, above 100 µM; with SK-MEL-28 melanoma, above 100 µM. The TGI in the assay with SN12C renal is above 100 µM.
Regarding `O=C(c1ccc(Cl)cc1)N(C(=S)N1CCN(c2ccccn2)CC1)c1ccccc1`, the TGI in the assay on HT29 colon, in the assay with M14 melanoma, in the assay with OVCAR-3 ovarian, with SF-539 CNS, in the assay with SK-MEL-28 melanoma and with SK-OV-3 ovarian was above 100 µM in each case. In the assay on SN12C renal, this molecule showed a TGI above 100 µM.
Regarding `COC(=O)C1(NC(=O)C(N)CC(=O)O)C(C)C1C` (stereo not drawn), the TGI in the assay with EKVX NSCLC, in the assay on HT29 colon, in the assay on M14 melanoma, in the assay with OVCAR-3 ovarian, in the assay with SF-539 CNS and in the assay on SK-MEL-28 melanoma was above 100 µM throughout. The TGI in the assay with SK-OV-3 ovarian, in the assay on SN12C renal and in the assay on T-47D breast was above 100 µM throughout.
For `Oc1[nH]c2ccccc2c1N=NC(=S)N1CCCCCC1`, the TGI came out at 6.8 µM with EKVX NSCLC; 10.8 µM in the assay on HT29 colon; 2.52 µM with M14 melanoma; 1.49 µM with OVCAR-3 ovarian; 1.59 µM in the assay on SF-539 CNS; 7.61 µM in the assay on SK-MEL-28 melanoma. Also, the TGI in the assay with SK-OV-3 ovarian was determined as 4.79 µM; with SN12C renal, 10.6 µM; with T-47D breast it was 17.6 µM.
With `CC(=O)OCC1OC(OCC2OC(N3C(=S)N[C@H]([C@@H](O)[C@H](O)[C@H](O)CO)[C@H]3O)C(OC(C)=O)C(OC(C)=O)C2OC(C)=O)C(OC(C)=O)C(OC(C)=O)C1OC(C)=O` (stereo partly drawn), the TGI in the assay with HT29 colon, in the assay with M14 melanoma, with OVCAR-3 ovarian, with SF-539 CNS, in the assay with SK-MEL-28 melanoma and in the assay on SK-OV-3 ovarian was above 100 µM throughout. For the same molecule, the TGI in the assay with SN12C renal and in the assay with T-47D breast was above 100 µM each time.
